The values below come from ChEMBL document CHEMBL1795342, “Discovery of S1P agonists with a dihydronaphthalene scaffold” (Bioorg Med Chem Lett, 2011).

In data set [1] the test system is Mus musculus. The data set can be described thus: Immunomodulatory activity in po dosed mouse assessed as reduction in peripheral lymphocyte count measured at 4 hrs. It counts as functional.
Data set [2] deals with Sphingosine 1-phosphate receptor 1 (Homo sapiens, UniProt P21453). The data set can be described thus: Agonist activity at human S1P1 receptor expressed in CHO cells assessed as intracellular calcium levels. Format: functional, cell-based. A general note: Calcium flux is commonly read through the fluorescence of an indicator in the cells.
In data set [3] the target is Sphingosine 1-phosphate receptor 3 (Homo sapiens, UniProt Q99500). The data set can be described thus: Agonist activity at human S1P3 receptor expressed in CHO cells assessed as intracellular calcium levels. It counts as functional, cell-based.
Data set [4] can be described thus: Volume of distribution at steady state in rat at 1 mg/kg, iv. It counts as ADME, organism-based. Further details: dose 1 mg/kg, route intravenous. Conditions: in vivo, read-out: Vdss.
Data set [5] can be described thus: AUC (infinity) in rat at 1 mg/kg, iv. Conditions: plasma. Format: ADME, organism-based. More on the design: time infinity, dose 1 mg/kg, route intravenous.
Data set [6] can be described thus: Cmax in rat at 1 mg/kg, po. It counts as ADME, organism-based. Further details: dose 1 mg/kg, route oral. Conditions: in vivo.
Data set [7] is described as follows: Half life in rat at 1 mg/kg, po. Conditions: in vivo. It counts as ADME, organism-based. Further details: dose 1 mg/kg, route oral.
Data set [8] can be described thus: AUC (infinity) in rat at 1 mg/kg, po. Format: ADME, organism-based. Further details: time infinity, dose 1 mg/kg, route oral. Conditions: plasma.
The nature of data set [9]: Bioavailability in rat at 1 mg/kg, iv. Format: ADME, organism-based. Conditions: in vivo.
Data set [10] in a line: Total clearance in rat at 1 mg/kg, iv. Format: ADME, organism-based. Further details: dose 1 mg/kg, route intravenous. Conditions: in vivo.
A short description of data set [11]: Half life in rat at 1 mg/kg, iv. Format: ADME, organism-based. Conditions: in vivo. Further details: dose 1 mg/kg, route intravenous.

Sphingosine 1-phosphate receptor 3, sequence (Q99500 whole entry): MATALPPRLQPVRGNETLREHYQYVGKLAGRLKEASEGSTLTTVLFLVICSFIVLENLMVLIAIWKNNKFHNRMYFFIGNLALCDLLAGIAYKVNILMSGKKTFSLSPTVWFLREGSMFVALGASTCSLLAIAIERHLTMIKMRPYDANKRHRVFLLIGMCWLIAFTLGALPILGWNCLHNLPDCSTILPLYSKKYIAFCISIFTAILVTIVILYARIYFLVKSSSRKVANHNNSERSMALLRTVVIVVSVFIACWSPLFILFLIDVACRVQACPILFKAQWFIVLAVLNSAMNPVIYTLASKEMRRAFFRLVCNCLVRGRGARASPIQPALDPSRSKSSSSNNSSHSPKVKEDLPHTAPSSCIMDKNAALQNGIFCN
Sphingosine 1-phosphate receptor 1, sequence (P21453 whole entry): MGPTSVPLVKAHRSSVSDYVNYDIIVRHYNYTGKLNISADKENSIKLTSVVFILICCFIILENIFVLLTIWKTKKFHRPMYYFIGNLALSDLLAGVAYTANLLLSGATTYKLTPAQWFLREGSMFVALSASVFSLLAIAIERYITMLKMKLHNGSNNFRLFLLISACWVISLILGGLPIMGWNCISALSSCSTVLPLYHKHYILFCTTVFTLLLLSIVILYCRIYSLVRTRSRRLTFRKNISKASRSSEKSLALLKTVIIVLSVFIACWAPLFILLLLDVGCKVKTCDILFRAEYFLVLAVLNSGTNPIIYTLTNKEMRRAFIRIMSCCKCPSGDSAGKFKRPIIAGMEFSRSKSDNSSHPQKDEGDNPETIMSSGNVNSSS

Broadly, the ED50 is the dose that gives a 50% effect, or the effect in half of the subjects. In the case of `O=C(O)CCNC/C=C/c1ccc(OCCCc2ccccc2)cc1`, the median effective dose (ED50) in [1] was 4.6 mg/kg.
By EC50 is commonly meant the concentration giving half of the maximal effect. As for `O=C(O)CCNC/C=C/c1ccc(OCCCCc2ccccc2)cc1`, the results for the EC50 in data set [2] and in [3] were 0.12 µM and over 10 µM, respectively.
`O=C(O)CCNC/C=C/c1ccc(OCCCCCc2ccccc2)cc1`: the 50% effective concentration (EC50) in data set [2] was 0.15 µM; in data set [3] it was 6.7 µM.
`Cc1cc(/C=C/CNCCC(=O)O)ccc1OCCCCc1ccccc1`: the concentration for a half-maximal effect (EC50) in [2] is 0.28 µM; in data set [3] it was over 10 µM.
For `O=C(O)CCNC/C=C/c1ccc(OCCCCc2ccccc2)cc1Cl` the same measures were 0.024 µM and 7.2 µM.
Turning to `COc1cc(OCCCCc2ccccc2)ccc1/C=C/CNCCC(=O)O`, the concentration giving a half-maximal response (EC50) in data set [2] was 0.23 µM; in data set [3] it was over 10 µM.
For `Cc1cc(OCCCCc2ccccc2)ccc1/C=C/CNCCC(=O)O` the same measures were 0.036 µM and over 10 µM.
For `O=C(O)C1CN(C/C=C/c2ccc(OCCCc3ccccc3)cc2)C1` the same measures were 0.043 µM and 3.3 µM.
`O=C(O)C1CCN(C/C=C/c2ccc(OCCCc3ccccc3)cc2)CC1`: the results for the EC50 in data set [2] and in [3] were 2.4 µM and over 10 µM, respectively.
Consider `C/C(=C\c1ccc(OCCCCc2ccccc2)cc1)CNCCC(=O)O`, for which the EC50 in data set [2] was 0.01 µM; in data set [3], 3 µM.
For `O=C(O)CCNCC1=Cc2ccc(OCCCCc3ccccc3)cc2CC1` the same measures were 0.057 µM and 7.8 µM.
As usually defined, the AUC(0-inf) is the area under the concentration-time curve extrapolated to infinity. Low values mean low exposure, high ones high exposure. In general, Cmax refers to the maximum level reached in the sampled fluid or tissue. In general, half-life refers to the time needed for the level to fall by half in the phase considered. Low values mean rapid decline, high ones slow decline. What is called bioavailability is dose-corrected exposure relative to a reference, in per cent. Read a low bioavailability as poor availability. As usually defined, the clearance is the rate of elimination divided by the concentration. Low readings indicate inefficient removal, high ones efficient removal. Turning to `CC1=C(CNCCC(=O)O)CCc2cc(OCCCCc3ccccc3)ccc21`, the ED50 in data set [1] is 0.34 mg/kg. Moreover, the concentration giving a half-maximal response (EC50) in data set [2] is 0.011 µM; in data set [3], over 10 µM. Besides, the Vd in data set [4] came out at 0.86 L/kg. The total exposure AUC(0-inf) was determined as 5.4 µg·h/mL in [5] and 2.4 µg·h/mL in data set [8]. This compound also gave a peak concentration (Cmax) in [6] of 0.168 µg/mL. Further, the results for the half-life in [7] and in data set [11] were 6.9 h and 5.2 h, respectively. The bioavailability in data set [9] was determined as 44%. This compound came in with a clearance in [10] of 0.186 L/h/kg.
`CC1=C(CN2CC(C(=O)O)C2)CCc2cc(OCCCCc3ccccc3)ccc21`: in data set [1], the ED50 came to 0.16 mg/kg. Besides, the concentration for a half-maximal effect (EC50) in data set [2] was 0.0029 µM; in data set [3] it was over 10 µM. In addition, in [4], the Vd is 2.86 L/kg. For the same compound, the AUC(0-inf) in data set [5] was 4.4 µg·h/mL; in data set [8] it was 3.8 µg·h/mL. The highest level in data set [6] (Cmax) was 0.181 µg/mL. Also, the results for the half-life in [7] and in [11] were 16.7 h and 11 h, respectively. The same compound returned a bioavailability in data set [9] of 85%. The same compound came in with a clearance in data set [10] of 0.24 L/h/kg.
`CC1=C(CN2CC(C(=O)O)C2)CCCc2cc(OCCCCc3ccccc3)ccc21`: the EC50 in data set [2] was 1.3 µM; in [3], over 10 µM.
